Experimental data: US20240116985A1, “STAPLED PEPTIDES AND METHODS THEREOF” (priority 2020, published 2024)
pIC50: −log10 of the molar value. Like-named read-outs stand apart in the source and are kept apart here.

What was measured:
[1] = target: T1, full-length beta-Catenin (Uniprot ID P35222) (Homo sapiens, UniProt P35222); test: Fluorescence polarization IC50 (beta-catenin / 5FAM-TCF4 10-53 competition); assay type: binding
T1 construct: 10 nM full-length beta-Catenin (Uniprot ID P35222)
T1 sequence (P35222 1-781): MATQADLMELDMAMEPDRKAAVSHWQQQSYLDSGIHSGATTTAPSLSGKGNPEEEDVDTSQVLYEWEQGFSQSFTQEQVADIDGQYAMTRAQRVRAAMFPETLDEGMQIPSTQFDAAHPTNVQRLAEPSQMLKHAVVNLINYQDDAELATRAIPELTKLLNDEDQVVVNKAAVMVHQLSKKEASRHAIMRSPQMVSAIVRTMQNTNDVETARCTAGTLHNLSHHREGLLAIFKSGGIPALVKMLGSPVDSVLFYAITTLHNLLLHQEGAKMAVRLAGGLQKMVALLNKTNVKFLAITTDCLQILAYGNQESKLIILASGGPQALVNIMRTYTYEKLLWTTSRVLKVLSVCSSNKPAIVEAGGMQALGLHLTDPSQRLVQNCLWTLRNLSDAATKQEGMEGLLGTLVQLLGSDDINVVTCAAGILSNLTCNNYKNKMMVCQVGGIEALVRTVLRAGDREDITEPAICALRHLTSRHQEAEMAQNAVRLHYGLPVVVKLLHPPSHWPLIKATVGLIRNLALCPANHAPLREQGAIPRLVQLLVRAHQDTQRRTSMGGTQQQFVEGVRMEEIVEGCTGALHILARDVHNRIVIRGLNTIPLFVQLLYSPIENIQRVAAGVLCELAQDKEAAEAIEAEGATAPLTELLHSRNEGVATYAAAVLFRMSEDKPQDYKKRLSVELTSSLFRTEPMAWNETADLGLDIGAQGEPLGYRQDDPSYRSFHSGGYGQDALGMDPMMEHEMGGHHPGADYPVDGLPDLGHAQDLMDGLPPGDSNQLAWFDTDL

[2] = target: T2, beta-catenin/TCF4 engagement (Homo sapiens, UniProt P35222); test: Nano-BRET target engagement assay (B-cat-Halo & TCF4-Luc in HEK293 cells); assay type: cell-based; conditions: read-out: NanoBRET Abs IC50
T2 construct: expressed in transfected cells; host or cells: HEK293
T2 sequence (P35222 1-781): T1 sequence (P35222 1-781)

[3] = fluorescence polarization; read-out: beta-Catenin FP IC50

Row | SMILES | pIC50 [1, 3] | pIC50 ([2]; absolute IC50) | pIC50 [2] | pIC50 ([1]; read-out: beta-Catenin FP IC50; fluorescence polarization)
1 | CC(=O)N1CCC[C@]12CC=CCCCC1(CCCC=CCCCOC(=O)N3CC[C@@](C(=O)N[C@@H](Cc4ccsc4)C(=O)N[C@@H](Cc4csc5ccccc45)C(=O)N[C@@H](CCC(N)=O)C(N)=O)(C3)NC(=O)[C@H](CC(C)C)NC(=O)[C@H](Cc3ccccc3)NC(=O)[C@H](C)NC(=O)[C@H](CC(=O)N3CCN(C)CC3)NC(=O)[C@H](CC(=O)O)NC(=O)[C@H](CC(=O)O)NC1=O)NC(=O)[C@H](CC(C)(C)C)NC(=O)[C@H](CC(=O)O)NC2=O (stereo partly drawn) [I-1484, Ac-PL3-Asp-Npg-B5-Asp-Asp-MePpzAsn-Ala-Phe-Leu-PyrS2-3Thi-BztA-Gln-NH2] | 7.52 | < 4.70 | – | –
2 | CC(=O)N1CCC[C@]12CC=CCCCC1(CCCC=CCCCOC(=O)N3CC[C@@](C(=O)N[C@@H](Cc4ccccc4Cl)C(=O)N[C@@H](Cc4csc5ccccc45)C(=O)N[C@@H](CO)C(N)=O)(C3)NC(=O)[C@H](CC(C)C)NC(=O)[C@H](Cc3ccccc3)NC(=O)[C@H](C)NC(=O)C(C)(C)NC(=O)[C@H](Cc3cccc(C(=O)O)c3)NC(=O)[C@H](CC(=O)O)NC1=O)NC(=O)[C@H](CC(C)(C)C)NC(=O)[C@H](CC(=O)O)NC2=O (stereo partly drawn) [I-1900, Ac-PL3-Asp-Npg-B5-Asp-3COOHF-Aib-Ala-Phe-Leu-PyrS2-2C1F-BztA-Ser-NH2] | 6.87 | – | < 4.70 | –
3 | CC(=O)N1CCC[C@]12CC=CCCCC1(CCCC=CCCCOC(=O)N3CC[C@@](C(=O)N[C@@H](Cc4ccsc4)C(=O)N[C@@H](Cc4csc5ccccc45)C(=O)N[C@@H](CCC(N)=O)C(N)=O)(C3)NC(=O)[C@H](CCCN3CCC(F)(F)CC3)NC(=O)[C@H](Cc3ccccc3)NC(=O)[C@H](C)NC(=O)[C@H](C)NC(=O)[C@H](CC(=O)O)NC(=O)[C@H](CC(=O)O)NC1=O)NC(=O)[C@H](CC(C)(C)C)NC(=O)[C@H](CC(=O)O)NC2=O (stereo partly drawn) [I-1486, Ac-PL3-Asp-Npg-B5-Asp-Asp-Ala-Ala-Phe-F2PipNva-PyrS2-3Thi-BztA-Gln-NH2] | 8.30 | 4.75 | – | –
4 | CC(=O)N1CCC[C@]12CC=CCCCC1(CCCC=CCCCOC(=O)N3CC[C@@](C(=O)N[C@@H](Cc4ccsc4)C(=O)N[C@@H](Cc4csc5ccccc45)C(=O)N[C@@H](CCC(N)=O)C(=O)N4CCC[C@H]4CO)(C3)NC(=O)[C@H](CC(C)C)NC(=O)[C@H](Cc3ccccc3)NC(=O)[C@H](C)NC(=O)[C@H](C)NC(=O)[C@H](CN(CC(=O)O)CC(F)(F)F)NC(=O)[C@H](CC(=O)O)NC1=O)NC(=O)[C@H](CC(C)(C)C)NC(=O)[C@H](CC(=O)O)NC2=O (stereo partly drawn) [I-1681, Ac-PL3-Asp-Npg-B5-Asp-TfeGA-Ala-Ala-Phe-Leu-PyrS2-3Thi-BztA-Gln-Proo1] | 7.73 | 5.27 | – | –
5 | CC(=O)N1CCC[C@]12CC=CCCCC1(CCCC=CCCCOC(=O)N3CC[C@@](C(=O)N[C@@H](Cc4ccsc4)C(=O)N[C@@H](Cc4csc5ccccc45)C(=O)N[C@@H](C)C(N)=O)(C3)NC(=O)[C@H](CC(C)C)NC(=O)[C@H](Cc3cccc(F)c3)NC(=O)[C@H](C)NC(=O)[C@H](C)NC(=O)[C@H](Cc3cccc(C(=O)O)c3)NC(=O)[C@H](CC(=O)O)NC1=O)NC(=O)[C@H](CC(C)(C)C)NC(=O)[C@H](CC(=O)O)NC2=O (stereo partly drawn) [I-2260, Ac-PL3-Asp-Npg-B5-Asp-3COOHF-Ala-Ala-3FF-Leu-PyrS2-3Thi-BztA-Ala-NH2] | 7.68 | 5.51 | – | –
6 | CC(=O)N1CCC[C@]12CC=CCCCC1(CCCC=CCCCOC(=O)N3CC[C@@](C(=O)N[C@@H](Cc4ccsc4)C(=O)N[C@@H](Cc4csc5ccccc45)C(=O)N[C@@H](CCC(=O)N4CCC(N5CCCCC5)CC4)C(N)=O)(C3)NC(=O)[C@H](CC(C)C)NC(=O)[C@H](Cc3ccccc3)NC(=O)[C@H](C)NC(=O)[C@H](C)NC(=O)[C@H](CN(CC(=O)O)CC(F)(F)F)NC(=O)[C@H](CC(=O)O)NC1=O)NC(=O)[C@H](CC(C)(C)C)NC(=O)[C@H](CC(=O)O)NC2=O (stereo partly drawn) [I-1797, Ac-PL3-Asp-Npg-B5-Asp-TfeGA-Ala-Ala-Phe-Leu-PyrS2-3Thi-BztA-[4Pippip]GlnR-NH2] | 8.00 | 4.65 | – | –
7 | CC(=O)N1CCC[C@]12CC=CCCCC1(CCCC=CCCCOC(=O)N3CC[C@@](C(=O)N[C@@H](Cc4ccsc4)C(=O)N[C@@H](Cc4csc5ccccc45)C(=O)N[C@@H](CCC(N)=O)C(=O)N[C@H](CO)Cc4ccccc4)(C3)NC(=O)[C@H](CC(C)C)NC(=O)[C@H](Cc3ccccc3)NC(=O)[C@H](C)NC(=O)[C@H](C)NC(=O)[C@H](CN(CC(=O)O)CC(F)(F)F)NC(=O)[C@H](CC(=O)O)NC1=O)NC(=O)[C@H](CC(C)(C)C)NC(=O)[C@H](CC(=O)O)NC2=O (stereo partly drawn) [I-1680, Ac-PL3-Asp-Npg-B5-Asp-TfeGA-Ala-Ala-Phe-Leu-PyrS2-3Thi-BztA-Gln-Pheo1] | 7.09 | 4.90 | – | –
8 | CC(=O)N1CCC[C@]12CC=CCCCC1(CCCC=CCCCOC(=O)N3CC[C@@](C(=O)N[C@@H](Cc4ccsc4)C(=O)N[C@@H](Cc4csc5ccccc45)C(=O)N[C@@H](CCC(N)=O)C(N)=O)(C3)NC(=O)[C@H](CC(C)C)NC(=O)[C@@H](Cc3cccc(S(=O)(=O)F)c3)NC(=O)[C@H](C)NC(=O)[C@H](C)NC(=O)[C@H](CN(CC(=O)O)CC(F)(F)F)NC(=O)[C@H](CC(=O)O)NC1=O)NC(=O)[C@H](CC(C)(C)C)NC(=O)[C@H](CC(=O)O)NC2=O (stereo partly drawn) [I-2185, Ac-PL3-Asp-Npg-B5-Asp-TfeGA-Ala-Ala-3SO2F-Leu-PyrS2-3Thi-BztA-Gln-NH2] | – | – | 5.21 | 7.38
9 | CCSSCCOC(=O)C[C@@H]1NC(=O)[C@H](CC(=O)O)NC(=O)C2(CCCC=CCCCOC(=O)N3CC[C@@](C(=O)N[C@@H](Cc4ccsc4)C(=O)N[C@@H](Cc4csc5ccccc45)C(=O)N[C@@H](CCC(N)=O)C(N)=O)(C3)NC(=O)[C@H](CC(C)C)NC(=O)[C@H](Cc3ccccc3)NC(=O)[C@H](C)NC(=O)[C@H](C)NC1=O)CCCC=CC[C@]1(CCCN1C(C)=O)C(=O)N[C@@H](CC(=O)O)C(=O)N[C@@H](CC(C)(C)C)C(=O)N2 (stereo partly drawn) [I-1965, Ac-PL3-Asp-Npg-B5-Asp-[EtSSEt]AspE-Ala-Ala-Phe-Leu-PyrS2-3Thi-BztA-Gln-NH2] | 6.20 | – | 4.60 | –
10 | CC(=O)N1CCC[C@]12CC=CCCCC1(CCCC=CCCCOC(=O)N3CC[C@@](C(=O)N[C@@H](Cc4cccnc4)C(=O)N[C@@H](Cc4csc5ccccc45)C(=O)N[C@@H](CCC(N)=O)C(N)=O)(C3)NC(=O)[C@H](CC(C)C)NC(=O)[C@H](Cc3ccccc3)NC(=O)[C@H](C)NC(=O)[C@H](C)NC(=O)[C@H](CN(CC(=O)O)CC(F)(F)F)NC(=O)[C@H](CC(=O)O)NC1=O)NC(=O)[C@H](CC(C)(C)C)NC(=O)[C@H](CC(=O)O)NC2=O (stereo partly drawn) [I-1701, Ac-PL3-Asp-Npg-B5-Asp-TfeGA-Ala-Ala-Phe-Leu-PyrS2-3PyrA-BztA-Gln-NH2] | 7.60 | 4.61 | – | –
11 | CC(=O)N1CCC[C@]12CC=CCCCC1(CCCC=CCCCOC(=O)N3CC[C@@](C(=O)N[C@@H](Cc4ccccc4Cl)C(=O)N[C@@H](Cc4csc5ccccc45)C(=O)N[C@@H](CC(=O)N4CCOCC4)C(N)=O)(C3)NC(=O)[C@H]([C@@H](C)O)NC(=O)[C@H](Cc3ccccc3)NC(=O)[C@H](C)NC(=O)[C@H](C)NC(=O)[C@H](CN(CC(=O)O)CC(F)(F)F)NC(=O)[C@H](CC(=O)O)NC1=O)NC(=O)[C@H](CC(C)(C)C)NC(=O)[C@H](CC(=O)O)NC2=O (stereo partly drawn) [I-1613, Ac-PL3-Asp-Npg-B5-Asp-TfeGA-Ala-Ala-Phe-Thr-PyrS2-2C1F-BztA-MorphAsn-NH2] | 8.05 | 5.28 | – | –
12 | CC(=O)N1CCC[C@]12CC=CCCCC1(CCCC=CCCCOC(=O)N3CC[C@@](C(=O)N[C@@H](Cc4ccccc4Cl)C(=O)N[C@@H](Cc4csc5ccccc45)C(=O)N[C@H](C)C(N)=O)(C3)NC(=O)[C@H](CO)NC(=O)[C@H](Cc3ccccc3)NC(=O)[C@H](C)NC(=O)[C@H](C)NC(=O)[C@H](Cc3cccc(C(=O)O)c3)NC(=O)[C@H](CC(=O)O)NC1=O)NC(=O)[C@H](CC(C)(C)C)NC(=O)[C@H](CC(=O)O)NC2=O (stereo partly drawn) [I-2030, Ac-PL3-Asp-Npg-B5-Asp-3COOHF-Ala-Ala-Phe-Ser-PyrS2-2C1F-BztA-dAla-NH2] | 7.66 | – | 5.41 | –
13 | CC(=O)N1CCC[C@]12CC=CCCCC1(CCCC=CCCCOC(=O)N3CC[C@@](C(=O)N[C@@H](Cc4ccsc4)C(=O)N[C@@H](Cc4csc5ccccc45)C(=O)N[C@@H](CCC(N)=O)C(N)=O)(C3)NC(=O)[C@H](CC(C)C)NC(=O)[C@H](Cc3ccccc3)NC(=O)[C@H](C)NC(=O)[C@H](C)NC(=O)[C@H](CCn3cc(-c4ccccc4C(=O)O)nn3)NC(=O)[C@H](CC(=O)O)NC1=O)NC(=O)[C@H](CC(C)(C)C)NC(=O)[C@H](CC(=O)O)NC2=O (stereo partly drawn) [I-2081, Ac-PL3-Asp-Npg-B5-Asp-[2COOHPh]TriAzDab-Ala-Ala-Phe-Leu-PyrS2-3Thi-BztA-Gln-NH2] | 7.89 | – | 4.94 | –
